Test results from patent US20140256756A1, “PIPERIDINYL-SUBSTITUTED LACTAMS AS GPR119 MODULATORS” (Array BioPharma Inc., priority 2011, published 2014).

System: modified version of the GPR119 receptor (94% identity to human receptor)
Test: cAMP production assay (LANCE cAMP kit, TR-FRET) in HEK-293 cells
Format: cell-based
Settings: for cAMP production in HEK-293 cells: HEK-293 cells stably expressing modified GPR119, test compounds 0.2 nM to 10 μM, one-hour incubation; for Fold over baseline: increase in cAMP relative to basal levels, agonist activity if 1.5-fold or greater
How it was run: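 Doxycycline-induced HEK-293 cells expressing modified GPR119 exposed to compounds (0.2 nM to 10 μM, 0.5% DMSO) for one hour at ambient temperature in HBSS with HEPES and BSA. cAMP measured by TR-FRET competition and interpolated from a standard curve; agonism defined as ≥1.5-fold over basal.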

| SMILES | cAMP production in HEK-293 cells [nmol] | Fold over baseline |
| --- | --- | --- |
| CC(C)c1nsc(N2CCC(N3CC[C@H](Oc4ccc(S(C)(=O)=O)nc4)C3=O)CC2)n1 [Example 94, (S)-1-(1-(3-isopropyl-1,2,4-thiadiazol-5-yl)piperidin-4-yl)-3-((6-(methylsulfonyl)pyridin-3-yl)oxy)pyrrolidin-2-one] | 28.1 | 4.0 |
| CC(C)(C)n1nnc(N2CCC(N3CC[C@H](Oc4ccc(S(C)(=O)=O)cc4F)C3=O)CC2)n1 [Example 95, (S)-1-(1-(2-(tert-butyl)2H-tetrazol-5-yl)piperidin-4-yl)-3-(2-fluoro-4-(methylsulfonyl)phenoxy)pyrrolidin-2-one] | 16.7 | 3.4 |
| CS(=O)(=O)c1cc(F)c(O[C@H]2CCN(C3CCN(c4nnc(C(F)(F)F)s4)CC3)C2=O)cc1F [Example 96, (S)-3-(2,5-difluoro-4-(methylsulfonyl)phenoxy)-1-(1-(5-(trifluoromethyl)-1,3,4-thiadiazol-2-yl)piperidin-4-yl)pyrrolidin-2-one] | 14.2 | 3.1 |
| CS(=O)(=O)c1cc(F)c(O[C@H]2CCN(C3CCN(c4cnc(C(F)(F)F)o4)CC3)C2=O)cc1F [Example 97, (S)-3-(2,5-difluoro-4-(methylsulfonyl)phenoxy)-1-(1-(2-(trifluoromethyl)oxazol-5-yl)piperidin-4-yl)pyrrolidin-2-one] | 19.0 | 4.1 |
| CS(=O)(=O)c1cc(F)c(O[C@H]2CCN(C3CCN(c4cnc(C(F)(F)F)s4)CC3)C2=O)cc1F [Example 98, (S)-3-(2,5-difluoro-4-(methylsulfonyl)phenoxy)-1-(1-(2-(trifluoromethyl)thiazol-5-yl)piperidin-4-yl)pyrrolidin-2-one] | 23.7 | 5.4 |
